Measurements from patent publication US20240156790A1, “COMPOUNDS, COMPOSITIONS, AND METHODS FOR MODULATING FERROPTOSIS AND TREATING EXCITOTOXIC DISORDERS” (THE TRUSTEES OF COLUMBIA UNIVERSITY IN THE CITY OF NEW YORK, priority 2018, published 2024).

Experiment: Plasma Stability Assay (Examples 6 and 8)
Format: in vitro ADME, mouse
Details: for half-life at 20 µM: mouse, plasma diluted 1:1 in phosphate buffer, pH 7.4, experiment I, read-out: t1/2 I; for half-life at 20 µM / t1/2 II: plasma half-life; for t1/2 II: experiment II
Protocol: (§1) Mouse plasma (GeneTex) was centrifuged at 3000 rpm for 10 min at 10° C. with the resulting supernatant withdrawn and diluted 1:1 in phosphate buffer pH 7.4. To a 96-well polypropylene plate was added 50% mouse plasma phosphate buffer (195 μL). A stock solution of analog in DMSO (0.8 μL. 5 mM) or fer-1 (positive control) was added to a separate well and the components were warmed to 37° C. for 5 min with gentle agitation. The reaction was initiated with the addition of analog to plasma, and the reaction kept at 37° C. for gentle agitation for the duration of the assay. At selected time points, aliquots (15 μL) were withdrawn from the plate and quenched upon addition to cold methanol (60 μL), containing an internal standard (5 μM) in a separate 96-well polypropylene plate. At the completion of the final time-point, the samples were centrifuged at 4,000 rpm for 5 min at 4° C. The supernatant (40 μL) was withdrawn and transferred to a sample vial with insert. The samples were analyzed by LC-MS. LC-MS analysis was performed on a platform comprising a Thermo Scientific Dionex Ultimate 3000 and a Bruker amaZon SL equipped with an electrospray ionization source controlled by Bruker Hystar 3.2. Chromatographic separation was performed by injecting 5 μL of the sample onto an Agilent Eclipse Plus C18 column (2.1×50 mm, 3.5 μm) maintained at 20° C. The flow rate was maintained at 400 μL/min. The initial flow conditions were 80% solvent A (water containing 0.1% acetic acid) and 20% solvent B (methanol containing 0.1% acetic acid). Solvent B was raised to 80% over 0.50 min by 1.50 min. Solvent B was raised to 100% by 5.00 min and held there for 3.25 min. […] All analogs were detected in positive mode as [M+H]*. The percent compound remaining at each time-point was calculated as the ratio of the integrated compound peak over the internal standard peak and standardized to the t=0 time-point. Values were plotted in GraphPad Prism 9 and fit with a one phase decay.
as §1, with “3000 rpm (1053 g) for 10” for “3000 rpm for 10”, “4,000 rpm (1872 g) for 5” for “4,000 rpm for 5”, “phase decay. […]” for “phase decay.”

Row | SMILES | stability in mouse plasma, in words | half-life at 20 µM | t1/2 II | time to full degradation in mouse plasma
1 | CCC(CC)Nc1cc(-c2nc(C)no2)cnc1NC1CCCCC1 [TH-4-55-2, N^2-cyclohexyl-5-(3-methyl-1,2,4-oxadiazol-5-yl)-N^3-(pentan-3-yl)pyridine-2,3-diamine] | not metabolized in mouse plasma | > 4 h | >4 h | –
2 | Cc1noc(-c2cnc(NC3CCCC3)c(NC3CCCC3)c2)n1 [TH-4-67, N^2,N^3-dicyclopentyl-5-(3-methyl-1,2,4-oxadiazol-5-yl)pyridine-2,3-diamine] | not metabolized in mouse plasma | > 4 h | >4 h | –
3 | Cc1noc(-c2cnc(NC3CCCCC3)c(NC3CCCCC3)c2)n1 [TH-2-31, N^2,N^3-dicyclohexyl-5-(3-methyl-1,2,4-oxadiazol-5-yl)pyridine-2,3-diamine] | not metabolized in mouse plasma | > 4 h | >4 h | –
4 | CCOC(=O)c1ccc(NC2CCCCC2)c(N)c1 [Fer-1, Ferrostatin-1, reference compound] | rapidly degraded in mouse plasma | – | – | less than 15 min
